Earlier results in patent US20240090499A1, “PRESERVATIVE COMPOSITIONS” (Dermegen Inc., priority 2022, published 2024).
Read-outs that look alike come from different tables or passages of the source.

System: fungi (molds)
Conditions: ingredient on its own

Compound | anti-fungal activity as known | anti-fungal activity as known (listed as Polylysine)
CCCCCCCC(=O)OCC(O)CO (stereo not drawn) [glyceryl caprylate] | weak preservatives against molds | 
polylysine | only weakly anti-fungal | weak preservative against fungal microorganisms such as molds
